Assay results published in patent publication US11104684B2, “Dimers of covalent NFKB inhibitors” (BOARD OF REGENTS OF THE UNIVERSITY OF NEBRASKA, priority 2016, dated 2021).

Experiments:
[1] = tested on: non-transformed HGSC precursor fallopian tube epithelial (FTE) cells FT282; assay: Growth inhibition in non-transformed fallopian tube epithelial cells; type: cell-based; settings: for IC50: Epithelial cell, non-transformed FT282 cells
Experimental: Monomeric compound 19, 36-252, and 36-242 were evaluated in non-transformed HGSC precursor fallopian tube epithelial (FTE) cells FT282.

OVCAR5 SP cells = assay: Side population analysis (Hoechst 33342, flow cytometry); settings: 60 μM, 15 min at 37° C.
Experimental: (§2) Hoechst 33342 dye (5 μg) was added to each tube and incubated for 45 min at 37° C. Tubes were vortexed slightly after every 5 min. Cells were resuspended in a single cell suspension after centrifugation and kept on ice before acquisition. The side-population was measured by flow cytometry.

[2] = tested on: proteins in the IKK complex (A2780 cells); assay: Western blot analysis of crosslinking; type: cell-based; settings: for crosslinking (high molecular weight bands): A2780 cells, 10 pM, 2 hours
Experimental: Crosslinking of proteins in the IKK complex was studied as follows. A2780 cells were treated with 10 pM of analog 19 or 36-252 and incubated for 2 hours.
Cells were washed with cold 1×PBS 3 times and scraped before being lysed by a buffer containing the following: 50 mM Tris, 100 mM NaCl, 1% NP-40, […], 20% SDS, 20×PPl (Na3VO4, NAF, β-glycerophosphate) and 1 mmol/L PMSF. After collection, samples were incubated on ice for 30 minutes and vortexed in 15 minute intervals. Samples were then centrifuged at 14,000rpm for 10 minutes at 4° C. and supernatant was collected. Protein quantification was determined by BCA Protein Assay (Pierce #23225). 20-40ug protein samples were run on 4-15% gradient gels (BioRad) in 1×TRIS-Glycine-SDS Buffer (Research Products International Corporation #T32080) at 120V for -60 minutes and separated by SDS-page electrophoresis. Samples were transferred to a PVDF membrane by semi-dry transfer method (ThermoScientific #35035) run at 18V for ˜35 minutes. Membranes were blocked in 5% milk diluted in 1×-Tris Buffered Saline with 0.1% Tween (1×TBST) for 1 hour at room temperature rocking at low speed. Primary antibodies were diluted in 5% milk in 1×TBST and were rocked gently overnight in 4° C. Membranes were incubated with the appropriate HRP-conjugated secondary antibody for 1 hour at room temperature while gently rocking. 3 washes (10 minute) with 1×TBST occurred before and after secondary antibody. ECL Prime (GE Healthcare #RPB2236) was used to detect protein expression

[3] = tested on: TNF-α-induced NFκB activity in A549 luciferase cells; assay: kB-luciferase assay; type: cell-based; settings: 20, 4, and 0.8 pM for 2 hours, then TNF-a
Experimental: A549 luciferase cells were seeded in white 96-well plates at a density of 50,000 cells per well and incubated overnight. Cells were stimulated with 20 ng/mL TNFα (Panomics) for 3 hours. AlamarBlue (abSerotec) was added (which served as a control for seeding and viability) and the cells were incubated for 3 additional hours. ONE-Glo Luciferase reagent (Promega) was added to each well and cells were incubated at room temperature for an additional 10 minutes before luminescence was measured at 1000 ms integration on a SpectraMax M5e plate reader.
The effect 36-252 and 36-297 on NFκB driven gene expression was evaluated using a cancer cell line specifically designed to monitor the activity of NFκB in response to TNF-α. Cells were seeded onto 96-well plates and allowed to attach overnight. The cells were treated with 36-252 and 36-297 (20, 4, and 0.8 pM) for 2 hours, followed by TNF-a for an additional 6 hours. Under multiplexing conditions the cells were assayed for viability using Alamar Blue (Ab Serotec) and the NFκB transcription activity using the ONE-Glo luciferase system (Promega).

MiaPaCa2 cells = assay: Cell viability assay (PrestoBlue, 72 hour drug incubation); type: cell-based; settings: Homo sapiens, MIA PaCa-2, 72 hour incubation, growth inhibition
Experimental: (§1) MiaPaCa2, A2780, and OVCAR5 cells were plated at 4000 cells/well in a 96-well plate and allowed to adhere overnight. The following day, cells were treated with compounds using ˜10-fold dilutions starting at 1000 nM. PrestoBlue reagent (Invitrogen #A13262) was added to cells after 72 hour drug incubation to assess the growth inhibition. Fluorescence excitation/emission was measured at 560/590nM using a SpectraMax M5^e instrument. Growth inhibition was calculated using 100-[100*(Samples-T0)/(T100-T0)]. T0 is the vehicle control reading immediately following drug addition and T100 is the control reading at the end of 72 hour incubation.

A2780 cells = assay: as above; type: cell-based; settings: 72 hour incubation, growth inhibition; for IC50: Homo sapiens
Experimental: as §1

OVCAR5 cells = assay: as above; type: cell-based; settings: growth inhibition; for IC50: Homo sapiens, OVCAR-5, 72 hour incubation
Experimental: as §1

[4] = Dose limiting toxicities / MTD study; type: in vivo
Experimental: Six to eight-week-old C57 Albino mice (18-22 grams) were used in this study and were randomly assigned. For MTD studies, 3 mice were randomly assigned to six groups. Animals (Group 1-6) received a single dose of (0, 1, 5, 10, 20 and 100 mg/Kg in […] neat DMSO) of 36-252 via intraperitoneal injection. Mice were sacrificed after 48 hours, and blood and serum samples were subjected to hematology and clinical chemistry analyses. For group 7, a 6-day, 5 mg/kg/day study was carried out followed by submission of samples for hematology and clinical chemistry analyses.
In the phase I study, the lethal dose or maximum tolerated dose of 36-252 was evaluated. […] In the phase II study, three mice at 5 mg/kg/day were administered intraperitoneally for six days.

A2780 SP cells = assay: Side population analysis (Hoechst 33342, flow cytometry); settings: 60 μM, 15 min at 37° C.
Experimental: as §2

[5] = tested on: caspase 3/7 activity in HGSC cell lines; assay: Caspase 3/7 luciferase assay (apoptosis); type: cell-based; settings: 1 μM, 6 hours, five HGSC cell lines
Experimental: To determine the effect of 36-252 on apoptosis, a small panel of HGSC cell lines was treated with 1 μM 36-252 for 6 hours (1 μM of flavopiridol was used as a positive control). Caspases are a class of cysteine proteinases that are activated during apoptosis and measuring caspase activity is routinely used to detect activation of apoptotic signaling. Activation of caspase 3/7 was assessed using a luciferase assay.
2500 cells were plated in a 384-well black walled clear bottom plate at 2,500 cells per well in […] per well in the presence of 4.5 μM doxycycline. Cells were incubated overnight to adhere to plate. After cells were treated and plate was allowed to incubate, Caspase-glo (Promega G8093) reagent was added and the plate was allowed to incubate for 30 min. The plate was then read for luminescence at 1000 ms. Presto-blue was added at a volume of 1/10 total volume per well (2.5μL) and cells were allowed to incubate for 10 min. The plate was then read for fluorescence at 560ex/590em. Values were calculated by: ([Luminescence*100]/Fluorescence)/DMSOavg.

[6] = tested on: high grade serous carcinoma (HGSC) ovarian cancer cell lines; assay: Growth inhibition in a panel of HGSC ovarian cancer cell lines; type: cell-based
Experimental: The IC50 value of all three inhibitors was greater than 20 μM in this cell line.

ovarian cancer cells = assay: 3-day growth assay; type: cell-based
From the text: In the same assay, reduced compound 36-297.

[7] = mouse, in vivo, ip, 5 mg/kg/day
[8] = panel of HGSC ovarian cancer cell lines

For C=C1CC2(OC1=O)C(=O)N(CCCCCCCN1C(=O)C3(CC(=C)C(=O)O3)c3ccccc31)c1ccccc12 (centres unmarked) [Compound 36-252], the IC50 [1] was > 20000 nM, the apparent therapeutic index ([1]; FT282 IC50 vs average HGSC IC50) was “greater than 25” and the “SP cells eliminated, OVCAR5” value (OVCAR5 SP cells) was > 85%. The “crosslinking (high molecular weight bands)” value [2] was “High molecular weight bands in the NFκB and IKBα blots were observed”, the “bands in time course study” value ([2]; time course study) was “a band between 150 and 250 kDa in addition to the IKBα-NFκB bands” and the “protein degradation / PARP cleavage” value ([2]; time course study) was “degradation of IKK α/β and PARP cleavage”. For the same compound, the “inhibition of NFκB transcription activity” value [3] was “Dose-dependent inhibition was observed”, the IC50 (MiaPaCa2 cells) was 0.76 µM and the IC50 (A2780 cells) was 0.32 µM. For the same compound, the IC50 (OVCAR5 cells) was 0.32 µM, the Treated/Alive ([4]; 1 mg/Kg, 1 dose, intraperitoneal, mice) was “(3/3)” and the “hematological analysis (WBC, RBC, hemoglobin)” value ([4]; mouse, in vivo) was “no significant differences in relative WBC, RBC, or hemoglobin numbers”. For the same compound, the overt toxicity ([4]; mouse, in vivo, 100 mg/kg) was “no sign of overt toxicity was observed”, the mean body weight [4, 7] was “nor was any statistical difference in mean body weight observed” and the “mortality and clinical levels” value [4, 7] was “No mortality or abnormal clinical levels were observed”. The “SP cells eliminated, A2780” value (A2780 SP cells) was > 98%, the “caspase 3/7 activity” value [5] was “Increased caspase 3/7 activity was seen in three of the five HGSC cell lines” and the IC50 ([6]; average over HGSC cell lines) was 780 nM. The “potency compared with 19 and 36-242” value [6, 8] was “more potent than analog 19 and a dimer with a 12-carbon linker 36-242” and the “potency in HGSC panel” value [6, 8] was “sub μM”.

Compound C=C1CC2(NC1=O)C(=O)Nc1ccccc12 (centres unmarked) [Compound 25-4] has an IC50 (MiaPaCa2 cells) of 6.08 µM, an IC50 (A2780 cells) of 0.99 ± 0.11 µM and an IC50 (OVCAR5 cells) of 3.13 ± 0.55 µM.

In the case of C=C1CC2(OC1=O)C(=O)N(CCCCCCN1C(=O)C3(CC(=C)C(=O)O3)c3ccccc31)c1ccccc12 (centres unmarked) [Compound 36-239], the IC50 (MiaPaCa2 cells) is reported as 1.05 µM, the IC50 (A2780 cells) is reported as 0.7 ± 0.09 µM and the IC50 (OVCAR5 cells) is reported as 0.3 ± 0.02 µM.

With C=C1CC2(OC1=O)C(=O)N(CCCCCCCCN1C(=O)C3(CC(=C)C(=O)O3)c3ccccc31)c1ccccc12 (centres unmarked) [Compound 36-254] the IC50 (MiaPaCa2 cells) was 1.7 µM, the IC50 (A2780 cells) was 0.6 ± 0.07 µM and the IC50 (OVCAR5 cells) was 0.32 µM.

In the case of C=C1CC2(OC1=O)C(=O)Nc1ccccc12 (centres unmarked) [Compound 19], the IC50 [1] is reported as > 20000 nM and the “crosslinking (high molecular weight bands)” value [2] is reported as “High molecular weight bands in the NFκB and IKBα blots were observed”.

In the case of C=C1CC2(NC1=O)C(=O)N(CCCCN1C(=O)C3(CC(=C)C(=O)N3)c3ccccc31)c1ccccc12 (centres unmarked) [Compound 40-038], the IC50 (A2780 cells) is reported as 0.4 ± 0.06 µM and the IC50 (OVCAR5 cells) is reported as 0.2 ± 0.04 µM.

With C=C1CC2(OC1=O)C(=O)N(CCCN1C(=O)C3(CC(=C)C(=O)O3)c3ccccc31)c1ccccc12 (centres unmarked) [Compound 36-286] the IC50 (A2780 cells) was 0.23 ± 0.02 µM and the IC50 (OVCAR5 cells) was 0.09 ± 0.01 µM.

In the case of C=C1CC2(OC1=O)C(=O)N(CCCCCCCCCN1C(=O)C3(CC(=C)C(=O)O3)c3ccccc31)c1ccccc12 (centres unmarked) [Compound 36-204], the IC50 (MiaPaCa2 cells) is reported as 2.16 µM, the IC50 (A2780 cells) is reported as 1.08 ± 0.01 µM and the IC50 (OVCAR5 cells) is reported as 0.48 ± 0.06 µM.

For CC1CC2(OC1=O)C(=O)N(CCCCCCCN1C(=O)C3(CC(C)C(=O)O3)c3ccccc31)c1ccccc12 (centres unmarked) [Compound 36-297], the “IC50 (μM) A2780” value (A2780 cells) was “Inactive” and the “IC50 (μM) OVCAR5” value (OVCAR5 cells; 72 hour incubation) was “Inactive”.

Compound C=C1CC2(OC1=O)C(=O)N(Cc1ccc(CN3C(=O)C4(CC(=C)C(=O)O4)c4ccccc43)cc1)c1ccccc12 (centres unmarked) [Compound 40-014] has an IC50 (A2780 cells) of 0.31 ± 0.02 µM and an IC50 (OVCAR5 cells) of 0.18 ± 0.01 µM.

In the case of C=C1CC2(OC1=O)C(=O)N(CCCCCCCCCCCN1C(=O)C3(CC(=C)C(=O)O3)c3ccccc31)c1ccccc12 (centres unmarked) [Compound 36-258], the IC50 (A2780 cells) is reported as 0.77 ± 0.14 µM and the IC50 (OVCAR5 cells) is reported as 0.83 ± 0.12 µM.

Compound C=C1CC2(OC1=O)C(=O)N(CCCCCCCCCCN1C(=O)C3(CC(=C)C(=O)O3)c3ccccc31)c1ccccc12 (centres unmarked) [Compound 36-256] has an IC50 (MiaPaCa2 cells) of 1.47 µM, an IC50 (A2780 cells) of 0.49 ± 0.06 µM and an IC50 (OVCAR5 cells) of 0.41 ± 0.06 µM.

For C=C1CC2(OC1=O)C(=O)N(CCN1C(=O)C3(CC(=C)C(=O)O3)c3ccccc31)c1ccccc12 (centres unmarked) [Compound 40-059], the IC50 (A2780 cells) was 0.42 ± 0.04 µM and the IC50 (OVCAR5 cells) was 0.32 ± 0.02 µM.

For C=C1CC2(OC1=O)C(=O)N(CCCCCN1C(=O)C3(CC(=C)C(=O)O3)c3ccccc31)c1ccccc12 (centres unmarked) [Compound 36-202], the IC50 (MiaPaCa2 cells) was 0.91 µM, the IC50 (A2780 cells) was 0.29 ± 0.04 µM and the IC50 (OVCAR5 cells) was 0.09 ± 0.01 µM.

For C=C1CC2(OC1=O)C(=O)N(CCCCCCCCCCCCN1C(=O)C3(CC(=C)C(=O)O3)c3ccccc31)c1ccccc12 (centres unmarked) [Compound 36-242], the IC50 [1] was > 20000 nM, the IC50 (MiaPaCa2 cells) was 1.94 µM and the IC50 (A2780 cells) was 0.5 ± 0.06 µM. For the same compound, the IC50 (OVCAR5 cells) was 0.47 ± 1.29 µM and the “potency relative to monomeric compound 19” value (ovarian cancer cells) was 10 fold.

Compound C=C1CC2(OC1=O)C(=O)N(CCCCCCCN1C(=O)C3(CC(=C)C(=O)O3)c3c(C)ccc(C)c31)c1c(C)ccc(C)c12 (centres unmarked) [Compound 36-280] has an IC50 (A2780 cells) of 0.35 ± 0.05 µM and an IC50 (OVCAR5 cells) of 0.37 ± 0.04 µM.
